Numbers after ± are expanded uncertainties.
Experiment: activity coefficient (dimensionless); of the first substance listed, at infinite dilution; xn = mol fraction of the nth substance listed
Conditions: 101.33 kPa, Liquid, Chromatography, x1 = 0

SMILES | activity coefficient (318.15 K) | activity coefficient (328.15 K) | activity coefficient (338.15 K) | activity coefficient (348.15 K) | activity coefficient (358.15 K)
Cc1ccccc1C [1,2-dimethylbenzene] + CC[N+](C)(CC)CCOC.O=S(=O)([N-]S(=O)(=O)C(F)(F)F)C(F)(F)F | 1.93 ± 0.17 | 1.94 ± 0.17 | 1.95 ± 0.17 | 1.96 ± 0.17 | 1.97 ± 0.17
Cc1cccc(C)c1 [1,3-dimethylbenzene] + CC[N+](C)(CC)CCOC.O=S(=O)([N-]S(=O)(=O)C(F)(F)F)C(F)(F)F | 2.12 ± 0.18 | 2.14 ± 0.18 | 2.14 ± 0.18 | 2.17 ± 0.19 | 2.18 ± 0.19
Cc1ccc(C)cc1 [1,4-dimethylbenzene] + CC[N+](C)(CC)CCOC.O=S(=O)([N-]S(=O)(=O)C(F)(F)F)C(F)(F)F | 2.12 ± 0.18 | 2.15 ± 0.19 | 2.15 ± 0.19 | 2.17 ± 0.19 | 2.18 ± 0.19
C1COCCO1 [1,4-dioxane] + CC[N+](C)(CC)CCOC.O=S(=O)([N-]S(=O)(=O)C(F)(F)F)C(F)(F)F | 0.66 ± 0.057 | 0.679 ± 0.058 | 0.704 ± 0.06 | 0.723 ± 0.061 | 0.734 ± 0.062
C=CCCCCCCCC [1-decene] + CC[N+](C)(CC)CCOC.O=S(=O)([N-]S(=O)(=O)C(F)(F)F)C(F)(F)F | 40.4 ± 3.5 | 37.4 ± 3.2 | 34.4 ± 3 | 32.2 ± 2.8 | 29.8 ± 2.6
C=CCCCCC [1-heptene] + CC[N+](C)(CC)CCOC.O=S(=O)([N-]S(=O)(=O)C(F)(F)F)C(F)(F)F | 13.3 ± 1.2 | 12.6 ± 1.1 | 11.9 ± 1 | 11.4 ± 1 | 10.9 ± 0.9
C#CCCCCC [1-heptyne] + CC[N+](C)(CC)CCOC.O=S(=O)([N-]S(=O)(=O)C(F)(F)F)C(F)(F)F | 4.47 ± 0.39 | 4.43 ± 0.38 | 4.39 ± 0.38 | 4.35 ± 0.38 | 4.29 ± 0.37
C#CCCCC [1-hexyne] + CC[N+](C)(CC)CCOC.O=S(=O)([N-]S(=O)(=O)C(F)(F)F)C(F)(F)F | 3.11 ± 0.27 | 3.11 ± 0.27 | 3.1 ± 0.27 | 3.1 ± 0.27 | 3.08 ± 0.27
CCC[N+](=O)[O-] [1-nitropropane] + CC[N+](C)(CC)CCOC.O=S(=O)([N-]S(=O)(=O)C(F)(F)F)C(F)(F)F | 0.78 ± 0.066 | 0.778 ± 0.065 | 0.775 ± 0.065 | 0.772 ± 0.065 | 0.77 ± 0.065
C#CCCCCCC [1-octyne] + CC[N+](C)(CC)CCOC.O=S(=O)([N-]S(=O)(=O)C(F)(F)F)C(F)(F)F | 6.47 ± 0.56 | 6.36 ± 0.55 | 6.21 ± 0.54 | 6.11 ± 0.53 | 5.97 ± 0.52
C#CCCC [1-pentyne] + CC[N+](C)(CC)CCOC.O=S(=O)([N-]S(=O)(=O)C(F)(F)F)C(F)(F)F | 2.15 ± 0.19 | 2.17 ± 0.19 | 2.18 ± 0.19 | 2.19 ± 0.19 | 2.21 ± 0.19
CC(C)CC(C)(C)C [2,2,4-trimethylpentane] + CC[N+](C)(CC)CCOC.O=S(=O)([N-]S(=O)(=O)C(F)(F)F)C(F)(F)F | 25.7 ± 2.2 | 23.8 ± 2.1 | 21.7 ± 1.9 | 21 ± 1.8 | 20 ± 1.7
CCC(C)(C)C [2,2-dimethylbutane] + CC[N+](C)(CC)CCOC.O=S(=O)([N-]S(=O)(=O)C(F)(F)F)C(F)(F)F | 15.1 ± 1.3 | 14 ± 1.2 | 13.3 ± 1.2 | 12.5 ± 1.1 | 11.9 ± 1
CCOC(C)(C)C [2-ethoxy-2-methylpropane] + CC[N+](C)(CC)CCOC.O=S(=O)([N-]S(=O)(=O)C(F)(F)F)C(F)(F)F | 6.09 ± 0.53 | 5.94 ± 0.51 | 5.86 ± 0.51 | 5.71 ± 0.49 | 5.59 ± 0.48
CCCCC(C)=O [2-hexanone] + CC[N+](C)(CC)CCOC.O=S(=O)([N-]S(=O)(=O)C(F)(F)F)C(F)(F)F | 1.14 ± 0.09 | 1.15 ± 0.1 | 1.16 ± 0.1 | 1.18 ± 0.1 | 1.19 ± 0.1
CCC(C)(C)OC [2-methoxy-2-methylbutane] + CC[N+](C)(CC)CCOC.O=S(=O)([N-]S(=O)(=O)C(F)(F)F)C(F)(F)F | 3.87 ± 0.33 | 3.86 ± 0.33 | 3.83 ± 0.33 | 3.8 ± 0.33 | 3.76 ± 0.32
COC(C)(C)C [2-methoxy-2-methylpropane] + CC[N+](C)(CC)CCOC.O=S(=O)([N-]S(=O)(=O)C(F)(F)F)C(F)(F)F | 2.62 ± 0.23 | 2.63 ± 0.23 | 2.65 ± 0.23 | 2.67 ± 0.23 | 2.67 ± 0.23

From the NIST ThermoML archive (doi:10.1016/j.jct.2016.07.017)
